How the values were obtained:
Leishmania donovani [1] = assay: Antileishmanial activity against promastigotes of Leishmania donovani MHOM/IN/60/Dd8 after 72 hrs by luciferase reporter gene assay; assay type: functional, organism-based; conditions: MHOM/IN/60/Dd8, 72 h
Leishmania donovani [2] = assay: Antileishmanial activity against amastigotes of Leishmania donovani MHOM/IN/60/Dd8 infected in mouse J-774A.1 cells after 72 hrs by luciferase reporter gene assay; assay type: functional, organism-based; conditions: MHOM/IN/60/Dd8, J774.A1, 72 h
[3] = (§1) Selectivity index, ratio of CC50 for mouse J774A1 cells to IC50 for amastigotes of Leishmania donovani MHOM/IN/60/Dd8 infected in mouse J-774A.1 cells; assay type: functional, J774.A1
[4] = Cytotoxicity against african green monkey Vero cells after 72 hrs by MTT assay; assay type: cell-based; conditions: chlorocebus sabaeus
[5] = Cytotoxicity against mouse J774A1 cells after 72 hrs by MTT assay; assay type: cell-based, J774.A1
Leishmania donovani [6] = assay: Antileishmanial activity against amastigotes of Leishmania donovani MHOM/IN/60/Dd8 infected in golden hamster assessed as amastigote count at 50 mg/kg/day, ip administered for 5 days measured on day 7 of post last dose by Giemsa staining; assay type: functional; conditions: MHOM/IN/60/Dd8, ip, route intraperitoneal
[7] = Lipophilicity, log P of the compound; assay type: physicochemical; conditions: octanol/water
Leishmania donovani [8] = assay: Antileishmanial activity against amastigotes of Leishmania donovani MHOM/IN/60/Dd8 infected in golden hamster assessed as amastigote count at 40 mg/kg/day, ip administered for 5 days measured on day 7 of post last dose by Giemsa staining; assay type: functional, organism-based
J774.A1 = assay: as §1; assay type: functional

| Compound | IC50 (Leishmania donovani [1]) [µM] | IC50 (Leishmania donovani [2]) [µM] | logP [7] | Ratio CC50/IC50 [3] | CC50 at 72 h [4] [µM] | CC50 at 72 h [5] [µM] | inhibition in vivo at 50 mg/kg/day (Leishmania donovani [6]) [%] | inhibition (Leishmania donovani [8]) [%] | Ratio CC50/IC50 (J774.A1) |
| --- | --- | --- | --- | --- | --- | --- | --- | --- | --- |
| CCCCCNC(c1ccc(C2NC(=O)c3ccccc3N2)cc1)c1nnnn1C(C)(C)C (stereo not given) | 1.91 | > 40 | – | – | – | – | – | – | – |
| CCCCNC(c1ccc(C2NC(=O)c3ccccc3N2)cc1)c1nnnn1C(C)(C)C (stereo not given) | 5.59 | > 40 | – | – | – | – | – | – | – |
| COc1cc(-c2cc(-c3ccc(C4NC(=O)c5ccccc5N4)cc3)nc(N)n2)cc(OC)c1OC (stereo not given) | 3.44 | 3.83 | – | 26.97 | 85.9 | 103 | – | – | – |
| CC(C)(C)NC(=O)C(c1ccc(Br)cc1)N(C(=O)c1cccc(Cl)c1)c1ccc(C2(C)NC(=O)c3ccccc3N2)cc1 (stereo not given) | > 40 | 15.6 | – | – | – | – | – | – | – |
| Nc1nc(-c2ccc(C3NC(=O)c4ccccc4N3)cc2)cc(-c2ccccc2Cl)n1 (stereo not given) | 9 | 15.3 | – | – | – | – | – | – | – |
| Nc1nc(-c2ccccc2)cc(-c2ccc(C3NC(=O)c4ccccc4N3)cc2)n1 (stereo not given) | 4.04 | 17 | – | – | – | – | – | – | – |
| CC(C)(C)n1nnnc1C(c1ccc(C2NC(=O)c3ccccc3N2)cc1)N1CCc2ccccc2C1 (stereo not given) | 1.27 | > 40 | – | – | – | – | – | – | – |
| COc1ccc(C(Nc2ccc(C3(C)NC(=O)c4ccccc4N3)cc2)c2nnnn2C(C)(C)C)cc1 (stereo not given) | 3.05 | 13.1 | – | >30.65 | > 400 | > 400 | – | – | – |
| COc1ccc(C(C(=O)NC(C)(C)C)N(C(=O)c2cccc(Cl)c2)c2ccc(C3(C)NC(=O)c4ccccc4N3)cc2)cc1 (stereo not given) | > 40 | 29.6 | – | – | – | – | – | – | – |
| COc1ccc(C(Nc2ccc(C3(C)NC(=O)c4ccccc4N3)cc2)c2nnnn2C(C)(C)C)c2ccccc12 (stereo not given) | 2.56 | 15.5 | – | – | – | – | – | – | – |
| Sodium stibogluconate | – | – | – | – | – | – | – | 86.9 | > 8.57 |
| CC(C)(C)NC(=O)C(c1ccc(Cl)cc1)N(C(=O)c1cccc(Cl)c1)c1ccc(C2(C)NC(=O)c3ccccc3N2)cc1 (stereo not given) | > 40 | 13.5 | – | >29.67 | > 400 | > 400 | – | – | – |
| CC1(c2ccc(N(C(=O)c3cccc(Cl)c3)C(C(=O)NC3CCCCC3)c3ccc(Cl)cc3)cc2)NC(=O)c2ccccc2N1 (stereo not given) | 39.5 | 15.8 | – | – | – | – | – | – | – |
| Nc1nc(-c2ccc(Br)cc2)cc(-c2ccc(C3NC(=O)c4ccccc4N3)cc2)n1 (stereo not given) | 2.82 | 7.02 | – | 17.82 | > 400 | 125 | – | – | – |
| CC(C)c1ccc(C(C(=O)NC(C)(C)C)N(C(=O)c2cccc(Cl)c2)c2ccc(C3(C)NC(=O)c4ccccc4N3)cc2)cc1 (stereo not given) | > 40 | 12 | – | >33.25 | > 400 | > 400 | – | – | – |
| CC(C)(C)n1nnnc1C(NCc1ccccc1)c1ccc(C2NC(=O)c3ccccc3N2)cc1 (stereo not given) | 3.64 | > 40 | – | – | – | – | – | – | – |
| COc1cccc(-c2cc(-c3ccc(C4NC(=O)c5ccccc5N4)cc3)nc(N)n2)c1OC (stereo not given) | 4.23 | 4.43 | – | >90.29 | > 400 | > 400 | – | – | – |
| COc1cc(C(Nc2ccc(C3(C)NC(=O)c4ccccc4N3)cc2)c2nnnn2C(C)(C)C)cc(OC)c1OC (stereo not given) | > 40 | > 40 | – | – | – | – | – | – | – |
| CC1(c2ccc(NC(c3ccc(Br)cc3)c3nnnn3C(C)(C)C)cc2)NC(=O)c2ccccc2N1 (stereo not given) | 24.1 | 8.46 | – | 47.28 | > 400 | 400 | – | – | – |
| COc1ccc(C(C(=O)NC2CCCCC2)N(C(=O)c2cccc(Cl)c2)c2ccc(C3(C)NC(=O)c4ccccc4N3)cc2)cc1 (stereo not given) | > 40 | 15.5 | – | – | – | – | – | – | – |
| Nc1nc(-c2ccc(Cl)cc2)cc(-c2ccc(C3NC(=O)c4ccccc4N3)cc2)n1 (stereo not given) | 3.07 | 1.89 | 4.49 | 43.46 | 323 | 82.2 | 35.8 | – | – |
| CC(C)c1ccc(C(C(=O)NC2CCCCC2)N(C(=O)c2cccc(Cl)c2)c2ccc(C3(C)NC(=O)c4ccccc4N3)cc2)cc1 (stereo not given) | > 40 | 4.74 | 8.53 | >84.38 | > 400 | > 400 | 48 | – | – |
| CC1(c2ccc(NC(c3ccc(Cl)cc3)c3nnnn3C(C)(C)C)cc2)NC(=O)c2ccccc2N1 (stereo not given) | 1.21 | 7.06 | – | >56.65 | > 400 | > 400 | – | – | – |
| Nc1nc(-c2ccc(F)cc2)cc(-c2ccc(C3NC(=O)c4ccccc4N3)cc2)n1 (stereo not given) | 9.83 | 24.7 | – | – | – | – | – | – | – |
| CC1(c2ccc(NC(c3ccncc3)c3nnnn3C(C)(C)C)cc2)NC(=O)c2ccccc2N1 (stereo not given) | > 40 | > 40 | – | – | – | – | – | – | – |
| CC(C)c1ccc(C(Nc2ccc(C3(C)NC(=O)c4ccccc4N3)cc2)c2nnnn2C2CCCCC2)cc1 (stereo not given) | 7 | 9.07 | – | >44.1 | > 400 | > 400 | – | – | – |
| CC(C)c1ccc(C(Nc2ccc(C3(C)NC(=O)c4ccccc4N3)cc2)c2nnnn2C(C)(C)C)cc1 (stereo not given) | 4.02 | 7.76 | 6.03 | >51.54 | > 400 | > 400 | 54 | – | – |
| COc1ccc(-c2cc(-c3ccc(C4NC(=O)c5ccccc5N4)cc3)nc(N)n2)cc1 (stereo not given) | 5.79 | 10.1 | – | 17.64 | 124 | 178 | – | – | – |
| CC1(c2ccc(NC(c3ccc(F)cc3)c3nnnn3C(C)(C)C)cc2)NC(=O)c2ccccc2N1 (stereo not given) | 3.68 | > 20 | – | – | – | – | – | – | – |

More lines, main results first:

| IC50 (Leishmania donovani [1]) [µM] | IC50 (Leishmania donovani [2]) [µM] | logP [7] | Compound | Ratio CC50/IC50 [3] | CC50 at 72 h [4] [µM] | CC50 at 72 h [5] [µM] | inhibition in vivo at 50 mg/kg/day (Leishmania donovani [6]) [%] | inhibition (Leishmania donovani [8]) [%] | Ratio CC50/IC50 (J774.A1) |
| --- | --- | --- | --- | --- | --- | --- | --- | --- | --- |
| 33.2 | > 40 | – | CC1(c2ccc(Nc3nc(N4CCCc5ccccc54)nc(N4CCCc5ccccc54)n3)cc2)NC(=O)c2ccccc2N1 (stereo not given) | – | – | – | – | – | – |
| 6.02 | 2.59 | – | CC1(c2ccc(Nc3nc(N4CCCCCC4)nc(N4CCCCCC4)n3)cc2)NC(=O)c2ccccc2N1 (stereo not given) | 91.64 | > 400 | 237 | 37.4 | – | – |
| > 40 | 9.42 | – | CC1(c2ccc(NC(c3ccc(Br)cc3)c3nnnn3C3CCCCC3)cc2)NC(=O)c2ccccc2N1 (stereo not given) | >42.46 | > 400 | > 400 | – | – | – |
| > 40 | > 40 | – | COc1ccc(CNc2nc(NCc3ccc(OC)cc3)nc(Nc3ccc(C4(C)NC(=O)c5ccccc5N4)cc3)n2)cc1 (stereo not given) | – | – | – | – | – | – |
| > 40 | > 40 | – | CC1(c2ccc(Nc3nc(NCCCN4CCOCC4)nc(NCCCN4CCOCC4)n3)cc2)NC(=O)c2ccccc2N1 (stereo not given) | – | – | – | – | – | – |
| 13.2 | > 20 | – | CC1(c2ccc(Nc3nc(NCc4ccco4)nc(NCc4ccco4)n3)cc2)NC(=O)c2ccccc2N1 (stereo not given) | – | – | – | – | – | – |
| 7.46 | 2.42 | 7.57 | CCCCCNc1nc(NCCCCC)nc(Nc2ccc(C3(C)NC(=O)c4ccccc4N3)cc2)n1 (stereo not given) | >165.29 | > 400 | > 400 | 43 | – | – |
| > 40 | > 40 | – | CC1(c2ccc(Nc3nc(N4CCC(O)CC4)nc(N4CCC(O)CC4)n3)cc2)NC(=O)c2ccccc2N1 (stereo not given) | – | – | – | – | – | – |
| 39.4 | 11.3 | – | CC1(c2ccc(NC(c3ccc(Cl)cc3)c3nnnn3C3CCCCC3)cc2)NC(=O)c2ccccc2N1 (stereo not given) | >35.3 | > 400 | > 400 | – | – | – |
| 6.38 | 6.72 | 6.49 | CC1(c2ccc(Nc3nc(NCc4ccccc4)nc(NCc4ccccc4)n3)cc2)NC(=O)c2ccccc2N1 (stereo not given) | >59.52 | 359 | > 400 | 44.8 | – | – |
| 3.02 | – | – | CC1(c2ccc(Nc3nc(Nc4ccccc4)nc(Nc4ccccc4)n3)cc2)NC(=O)c2ccccc2N1 (stereo not given) | – | – | – | – | – | – |
| 3.92 | > 20 | – | CC1(c2ccc(NC(c3cccc4ccccc34)c3nnnn3C(C)(C)C)cc2)NC(=O)c2ccccc2N1 (stereo not given) | – | – | – | – | – | – |
| 1.02 | 5.48 | – | CC(C)(C)Nc1nc(Nc2ccc(C3(C)NC(=O)c4ccccc4N3)cc2)nc(NC(C)(C)C)n1 (stereo not given) | 11.07 | 159 | 60.7 | – | – | – |
| > 40 | > 40 | – | CC1(c2ccc(Nc3nc(N4CCOCC4)nc(N4CCOCC4)n3)cc2)NC(=O)c2ccccc2N1 (stereo not given) | – | – | – | – | – | – |
| > 40 | 16.8 | – | COc1ccc(C(Nc2ccc(C3(C)NC(=O)c4ccccc4N3)cc2)c2nnnn2C2CCCCC2)cc1 (stereo not given) | – | – | – | – | – | – |
| 7.69 | 4.8 | – | CCCCNc1nc(NCCCC)nc(Nc2ccc(C3(C)NC(=O)c4ccccc4N3)cc2)n1 (stereo not given) | 8.35 | 142 | 40.1 | – | – | – |
| 8.86 | 8.87 | – | CCCNc1nc(NCCC)nc(Nc2ccc(C3(C)NC(=O)c4ccccc4N3)cc2)n1 (stereo not given) | >45.09 | > 400 | > 400 | – | – | – |
